These compounds were tested against T1, IL-17A/A (Homo sapiens, UniProt Q16552) (assay: IL-17A/A HEK-Blue Cell Assay). Conditions: HEK-Blue IL-17A reporter cell line, SEAP readout at A630, 20 hours incubation with IL-17A/A; top concentration 10 uM, 1 uM or 0.3 uM.
T1 construct: purchased Genscript Z03228
T1 sequence (Q16552 24-155): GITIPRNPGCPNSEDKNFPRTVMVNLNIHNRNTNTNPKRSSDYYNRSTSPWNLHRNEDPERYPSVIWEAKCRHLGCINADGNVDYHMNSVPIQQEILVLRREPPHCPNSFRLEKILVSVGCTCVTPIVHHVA
Format: cell-based
Procedure: The HEK-Blue IL-17A reporter cell line (Fisher #NC1408637) was used for cell-based IL-17A/A inhibition assays. Cells were grown and prepared for assays according to the manufacturer's instructions. This cell line consists of HEK 293 cells that were designed to expressed IL-17RA, IL-17RC, and the ActI adapter molecule, the combination of which, when stimulated by IL-17A/A activates a NFκB promoter and drives expression of a recombinant Secreted Alkaline Phosphatase (SEAP) geneprotein. Media from the cells is then added to a development reagent (Quanti-Blue Substrate, Fisher #NC9711613), and read at A630.
Compounds were titrated in DMSO, with a top final compound concentration of 10 uM, 1 uM, or 0.3 uM, and added to the cells immediately before adding IL-17A/A (Genscript #Z03228). The cells, compound, and IL-17A/A were then incubated for 20 hours before media was removed for SEAP analysis. The resulting inhibition curve was then analyzed using Graphpad Prism 7.0, and IC50 values were determined using a 4-parameter nonlinear fit. DMSO was added to a universal final concentration of 0.1% to optimize background.

Row | SMILES | IL-17A/A inhibition (pIC50)
1 | CCC(=O)N[C@@H](C(=O)N1CCN(C)CC1)[C@@H](C)c1ccc(NC(=O)C(NC(=O)c2ccnn2CC)C(OC)c2ccc(F)cc2)c(F)c1 (single isomer, unassigned) [Compound 608] | X3b (compounds were evaluated up to 0.3 uM and inhibited activity at 0.3 uM by less than 20%)
2 | CCC(=O)N[C@@H](C(=O)N1CCN(C)CC1)[C@@H](C)c1ccc(NC(=O)C(NC(=O)c2nonc2CC)C(OC)c2ccc(F)cc2)c(F)c1 (single isomer, unassigned) [Compound 609] | X2b (compounds were evaluated up to 1 uM and inhibited activity at 1 uM by less than 20%)
3 | CCC(=O)N[C@@H](C(=O)N1CCN(C)CC1)[C@@H](C)c1ccc(NC(=O)C(NC(=O)c2nonc2CC)C(C)C2CCC(C)CC2)c(F)c1 (single isomer, unassigned) [Compound 613] | X2b (compounds were evaluated up to 1 uM and inhibited activity at 1 uM by less than 20%)
4 | CCC(=O)NC(C(=O)NCC1CCC1)C(C)c1ccc(NC(=O)[C@@H](NC(=O)c2ccnn2CC)[C@H]2CC[C@H](C)CC2)c(F)c1 (single isomer, unassigned) [Compound 662] | X3a (compounds were evaluated up to 0.3 uM and did not inhibit activity by >80%, however they showed some activity at 0.3 uM (less than 80% and more than 20%))
5 | CCC(=O)NC(C(=O)N1CCN(Cc2ccccc2)CC1)C(C)c1ccc(NC(=O)[C@@H](NC(=O)c2ccnn2CC)[C@H]2CC[C@H](C)CC2)c(F)c1 (single isomer, unassigned) [Compound 663] | X3b (compounds were evaluated up to 0.3 uM and inhibited activity at 0.3 uM by less than 20%)
6 | CCC(=O)N[C@@H](C(=O)N1CCN(C)CC1)[C@@H](C)c1ccc(NC(=O)C(NC(=O)c2ccnn2CC)C2CCc3ccccc32)c(F)c1 (single isomer, unassigned) [Compound 753] | X2b (compounds were evaluated up to 1 uM and inhibited activity at 1 uM by less than 20%)

Same assay, conditions: HEK-Blue IL-17A reporter cell line, SEAP readout at A630, 20 hours incubation with IL-17A/A; top concentration 10 uM, 1 uM or 0.3 uM; read-out: IL-17A/A inhibition (pIC50) (converted)

Row | SMILES | IC50 [nM]
7 | CCC(=O)N[C@@H](C(=O)N1CCN(C)CC1)[C@@H](C)c1ccc(NC(=O)C(NC(=O)c2ccnn2CC)C(C)C2CCC(F)(F)CC2)c(F)c1 (single isomer, unassigned) [Compound 606] | 10 to 100
8 | CCC(=O)N[C@@H](C(=O)N1CCN(C)CC1)C(OC)c1ccc(NC(=O)[C@@H](NC(=O)c2ccnn2CC)[C@H]2CC[C@H](C)CC2)c(F)c1 (single isomer, unassigned) [Compound 614] | 100 to 10000
9 | [2H]C([2H])([2H])C1CCC(C(NC(=O)c2nonc2CC)C(=O)Nc2ccc([C@H](C)[C@@H](NC(=O)N(C)C3CC3)C(=O)N3CCN(C)[C@H](C)C3)cc2F)CC1 (single isomer, unassigned) [Compound 615] | < 10
10 | CCC(=O)N[C@@H](C(=O)N1CCN(C)CC1)[C@@H](C)c1ccc(NC(=O)C(NC(=O)c2ccnn2CC)C2CCc3cc(F)cc(F)c32)c(F)c1 (single isomer, unassigned) [Compound 809] | < 10
11 | CCC(=O)N[C@H](Cc1ccc(NC(=O)[C@@H](NC(=O)C(F)(F)c2ccc(OC)nc2)C2CCCCC2)c(F)c1)C(=O)N1CCN(C)CC1 [Compound 203] | 100 to 10000
12 | CCC(=O)N[C@H](Cc1ccc(NC(=O)[C@@H](NC(=O)C(F)(F)c2ccccc2)C2CCCCC2)c(F)c1)C(=O)N1CCN(C)CC1 [Compound 204] | 100 to 10000
13 | CCC(=O)N[C@H](Cc1ccc(NC(=O)[C@@H](NC(=O)C(F)(F)c2cccnc2)C2CCCCC2)c(F)c1)C(=O)N1CCN(C)CC1 [Compound 205] | 100 to 10000
14 | CCC(=O)N[C@H](Cc1ccc(NC(=O)[C@@H](NC(=O)C(F)(F)c2ccc(OC)cc2)C2CCCCC2)c(F)c1)C(=O)N1CCN(C)CC1 [Compound 206] | 100 to 10000
15 | CCC(=O)N[C@H](Cc1ccc(NC(=O)[C@@H](NC(=O)C(F)(F)c2cccc(OC)c2)C2CCCCC2)c(F)c1)C(=O)N1CCN(C)CC1 [Compound 207] | 100 to 10000
16 | CCC(=O)N[C@H](Cc1ccc(NC(=O)[C@@H](NC(=O)C(F)(F)c2ccc(C)nc2)C2CCCCC2)c(F)c1)C(=O)N1CCN(C)CC1 [Compound 208] | 100 to 10000
17 | CCC(=O)N[C@H](Cc1ccc(NC(=O)[C@@H](NC(=O)C(F)(F)c2ccc(C)cc2)C2CCCCC2)c(F)c1)C(=O)N1CCN(C)CC1 [Compound 210] | 100 to 10000
18 | CCC(=O)N[C@H](Cc1ccc(NC(=O)[C@@H](NC(=O)C(F)(F)c2ccc(Cl)cc2)C2CCCCC2)c(F)c1)C(=O)N1CCN(C)CC1 [Compound 211] | 100 to 10000
19 | CCC(=O)N[C@H](Cc1ccc(NC(=O)[C@@H](NC(=O)C(F)(F)c2cncs2)C2CCCCC2)c(F)c1)C(=O)N1CCN(C)CC1 [Compound 213] | 100 to 10000
20 | CCC(=O)N[C@H](Cc1ccc(NC(=O)[C@@H](NC(=O)C(F)(F)c2ccc(OC)nc2)C2CCCCCC2)c(F)c1)C(=O)N1CCN(C)CC1 [Compound 214] | 10 to 100
21 | CCC(=O)N[C@H](Cc1ccc(NC(=O)[C@@H](NC(=O)C(F)(F)c2ccc(OC)nc2)C2CCC(F)(F)CC2)c(F)c1)C(=O)N1CCN(C)CC1 [Compound 215] | 100 to 10000
22 | CCC(=O)N[C@H](Cc1ccc(NC(=O)[C@@H](NC(=O)C(F)(F)c2ccc(OC)nc2)[C@H]2CC[C@H](C)CC2)c(F)c1)C(=O)N1CCN(C)CC1 [Compound 216] | 100 to 10000
23 | CCC(=O)N[C@H](Cc1ccc(NC(=O)[C@@H](NC(=O)C(F)(F)c2ccc(=O)[nH]c2)C2CCCCC2)c(F)c1)C(=O)N1CCN(C)CC1 [Compound 217] | 100 to 10000
24 | CCC(=O)N[C@@H](C(=O)N1CCN(C)CC1)[C@@H](C)c1ccc(NC(=O)[C@@H](NC(=O)C(F)(F)c2ccc(OC)nc2)C2CCCCC2)c(F)c1 [Compound 218] | 10 to 100

Row | SMILES | IC50 [nM]
25 | CCC(=O)N[C@@H](C(=O)N1CCN(C)CC1)[C@@H](C)c1ccc(NC(=O)[C@@H](NC(=O)C(F)(F)c2ccc(OC)nc2)C2CCCCCC2)c(F)c1 [Compound 219] | 10 to 100
26 | CCC(=O)N[C@@H](C(=O)N1CCN(C)CC1)[C@@H](C)c1ccc(NC(=O)[C@@H](NC(=O)C(F)(F)c2ccc(OC)nc2)C2CCC(F)(F)CC2)c(F)c1 [Compound 220] | 10 to 100
27 | CCC(=O)N[C@@H](C(=O)N1CCN(C)CC1)[C@@H](C)c1ccc(NC(=O)[C@@H](NC(=O)C(F)(F)c2ccc(OC)nc2)C2CCCCC2)cc1 [Compound 221] | 10 to 100
28 | CCC(=O)N[C@@H](C(=O)N1CCN(C)CC1)[C@@H](C)c1ccc(NC(=O)[C@@H](NC(=O)C(F)(F)c2ccc(OC)nc2)C2CCCCCC2)cc1 [Compound 222] | 10 to 100
29 | COc1ccc(C(F)(F)C(=O)N[C@H](C(=O)Nc2ccc([C@H](C)[C@@H](NC(=O)c3cnns3)C(=O)N3CCN(C)CC3)cc2F)C2CCCCC2)cn1 [Compound 224] | < 10
30 | CCC(=O)N[C@@H](C(=O)N1CCN(C)CC1)[C@@H](CC)c1ccc(NC(=O)[C@@H](NC(=O)C(F)(F)c2ccc(OC)nc2)C2CCCCCC2)cc1 [Compound 227] | 10 to 100
31 | CCC(=O)N[C@@H](C(=O)N1CCN(C)CC1)[C@@H](C)c1ccc(NC(=O)[C@@H](NC(=O)c2ccnn2CC)C2CCCCCC2)c(F)c1 [Compound 228] | < 10
32 | CCC(=O)N[C@@H](C(=O)N1CCN(C)CC1)[C@@H](C)c1ccc(NC(=O)[C@@H](NC(=O)c2ccnn2CC)C2CCCCC2)c(F)c1 [Compound 229] | 10 to 100
33 | CCC(=O)N[C@@H](C(=O)N1CCN(C)CC1)[C@@H](C)c1ccc(NC(=O)[C@@H](NC(=O)C(F)(F)c2cccc(C#N)c2)C2CCCCC2)c(F)c1 [Compound 230] | < 10
34 | CCC(=O)N[C@@H](C(=O)N1CCN(C)CC1)[C@@H](C)c1ccc(NC(=O)[C@@H](NC(=O)c2ccnn2C(C)C)C2CCCCCC2)cc1 [Compound 232] | 10 to 100
35 | CCC(=O)N[C@@H](C(=O)N1CCN(C)CC1)[C@@H](C)c1ccc(NC(=O)[C@@H](NC(=O)c2ccnn2CC)[C@H]2CC[C@H](C)CC2)c(F)c1 [Compound 234] | 10 to 100
36 | CCC(=O)N[C@H](Cc1ccc(NC(=O)[C@@H](NC(=O)c2ccnn2CC)C2CCCCCC2)c(F)c1)C(=O)N1CCN(C)CC1 [Compound 235] | 10 to 100
37 | CCC(=O)N[C@H](Cc1ccc(NC(=O)[C@@H](NC(=O)c2conc2CC)C2CCCCCC2)c(F)c1)C(=O)N1CCN(C)CC1 [Compound 236] | 10 to 100
38 | CCCn1nccc1C(=O)N[C@H](C(=O)Nc1ccc(C[C@@H](NC(=O)CC)C(=O)N2CCN(C)CC2)cc1F)C1CCCCC1 [Compound 237] | 10 to 100
39 | CCC(=O)N[C@H](Cc1ccc(NC(=O)[C@@H](NC(=O)c2ccnn2C(C)C)C2CCCCCC2)c(F)c1)C(=O)N1CCN(C)CC1 [Compound 238] | 10 to 100
40 | CCC(=O)N[C@H](Cc1ccc(NC(=O)[C@@H](NC(=O)c2coc3cc(OC)ccc23)C2CCCCC2)c(F)c1)C(=O)N1CCN(C)CC1 [Compound 239] | 10 to 100
41 | CCC(=O)N[C@@H](C(=O)N1CCN(C)CC1)[C@@H](C)c1ccc(NC(=O)[C@@H](NC(=O)c2ccnn2CC)C2CCC(F)(F)CC2)c(F)c1 [Compound 240] | 10 to 100
42 | CCC(=O)N[C@@H](C(=O)N1CCN(C)CC1)[C@@H](C)c1ccc(NC(=O)[C@@H](NC(=O)c2ccnn2C(C)C)C2CCCCCC2)c(F)c1 [Compound 241] | < 10
